Read-outs that look alike come from different tables or passages of the source.
Tests used:
[1] = system: rats (motility, muscle tone, catalepsia); assay: Tranquilizing activity: Irwin screen in rats; type: in vivo, rat
Protocol: (§1) The tranquilizing activity of the compounds was determined by the following methods:
(1) Irwin screen in rats (Irwin S., Psychopharmacologia 13:222, 1968)
Especially sedatory and cataleptic activity and effects on muscle tone are observed.

[2] = system: male mice on a 55° C. hot plate; assay: Hot plate test; type: in vivo, mouse (male)
Protocol: The analgesic activity of the compounds of formula (I) was tested in the following manner: […]
Test compounds or saline were given i.p. to male mice. Thirty minutes thereafter, the time for which the mice remained on a 55° C. plate was recorded. The results are expressed as compared to saline.

[3] = system: cattle (avoidance, muscle tone); assay: Tranquilizing or taming effect on cattle; type: in vivo
Protocol: as §1
(2) Tranquilizing or taming effect on cattle:
The test compounds were administered i.m. to cattle, mostly to heifers (150-200 kg).
The most suitable tranquilized state of an animal includes the ability to retain the upright position and coordination with minimal avoidance reactions to painful stimuli and handling. Thus, a combination of sedative and analgesic potency is required.

[4] = Acute toxicity in female NMRI mice, i.v.; conditions: in vivo, iv, mouse
Protocol: Acute toxicity was determined by using female mice of NMRI-Strain with an age of about 7 months and weighing 30-40 g. The administration of the test compound was i.v.

[5] = system: indomethacin-induced ulcers; assay: Preventive effect on formation of indomethacin-induced ulcers; type: in vivo, rat (female Sprague-Dawley); conditions: for ED50: Rattus norvegicus, ip, 4 h, read-out: ED50 (ulcer prevention)
[6] = as above; type: in vivo, rat (female Sprague-Dawley); conditions: rat, in vivo, iv; LD50 (mouse, i.v.) / ED50 (ulcer); read-out: Therapeutic Index
[7] = system: anesthetized Sprague-Dawley rats (blood pressure, pulse frequency); assay: Blood pressure and pulse frequency in anesthetized normal-weight Sprague-Dawley rats (i.v.); type: in vivo, rat (Sprague-Dawley); conditions: for minimal effective dose: Rattus norvegicus, iv
Protocol: The anti-hypertensive properties of the imidazole derivatives of the present invention have been determined according to the following procedure. Sprague-Dawley rats of normal weight were first anesthetized with urethane. After this, the femoral artery was connected by way of a polyethylene tube with a blood pressure transducer. The test substance was then injected into the femoral vein and the blood pressure and the pulse frequency were registered with a recorder. The minimum doses producing a significant change were found, i.e. ± at least 20% in the case of blood pressure, and ± at least 3% in the case of pulse frequency.

[8] = system: spontaneous hypertensive rats (SHR) (blood pressure); assay: Blood pressure in unanesthetized Okamoto-Aoki spontaneous hypertensive rats (SHR), peroral; type: in vivo, rat (Okamoto-Aoki SHR)
Protocol: In a further test for anti-hypertensive properties, unanesthetized Okamoto-Aoki spontaneous hypertensive rats (SHR) were used. The test derivative was administered perorally by way of a tube into the stomach. The blood pressure was measured from the tail using an indirect bloodless method.

rats (blood pressure) = assay: Applicant's experiments on prior-art imidazoles: anti-hypertensive activity / blood pressure in rats; type: in vivo, rat; conditions: for antihypertensive activity: found by our experiments
[9] = read-out: Blood Pressure Minimum Dose having a significant lowering effect
[10] = read-out: Pulse frequency Minimum Dose having a significant lowering effect
[11] = 10 μg/kg i.v., anesthetized rats, on an average

SMILES: Clc1ccccc1Cc1c[nH]cn1 [4-(2'-chlorobenzyl)imidazole, 4-(2'-Chlorobenzyl)imidazole]
- catalepsia ([1]; 0.25 mg/kg): +
- decrease of motility ([1]; 0.25 mg/kg): +
- Analgesic activity ([2]; 1.5 mg/kg): +
- change in vivo at 1.5 mg/kg ([2]; Mus musculus, ip, 0.5 h, 1.5 mg/kg i.p., read-out: increase in HP-time (%)): 200%
- loss of avoidance ([3]; 0.1 mg/kg i.m.): +
- LD50 [4]: 65 mg/kg
- ED50 [5]: 0.03 mg/kg
- selectivity ratio [6]: 2170

SMILES: Cc1cccc(Cc2c[nH]cn2)c1C [4-(2',3'-dimethylbenzyl)imidazole, 4-(2',3'-Dimethylbenzyl)imidazole]
- minimal effective dose [7, 9]: 0.01 to 0.1 mg/kg
- minimal effective dose ([7]; read-out: Pulse frequency Minimum Dose having a significant increasing effect): 3 to 10 mg/kg
- minimal effective dose [7, 10]: 0.01 to 1 mg/kg
- decrease of motility ([1]; 1.0 mg/kg): +
- loss of muscle tone ([1]; 1.0 mg/kg): +
- Analgesic activity ([2]; 0.6 mg/kg): +
- change in vivo at 0.6 mg/kg ([2]; Mus musculus, ip, 0.5 h, 0.6 mg/kg i.p., read-out: increase in HP-time (%)): 200%
- loss of avoidance ([3]; 0.1 mg/kg i.m.): ++
- LD50 [4]: 35 mg/kg
- ED50 [5]: 0.005 mg/kg
- selectivity ratio [6]: 7000

SMILES: Cc1cccc(C)c1Cc1cnc[nH]1 [4-(2',6'-dimethylbenzyl)imidazole, 4-(2',6'-Dimethylbenzyl)imidazole]
- lowering of the blood pressure ([7]; 1 μg/kg i.v., anesthetized rats): detectable lowering of the blood pressure
- blood pressure lowering ([7]; 3 μg/kg i.v., anesthetized rats): quite clear
- decrease of pulse frequency [7, 11]: 12%
- reduction of blood pressure [7, 11]: 30%
- therapeutic range ([7]; LD50 40 mg/kg i.v. in mice versus blood pressure lowering doses): very broad
- minimal effective dose [7, 9]: 0.003 to 0.1 mg/kg
- minimal effective dose [7, 10]: 0.003 mg/kg
- duration of the effect ([7]; i.v., anesthetized rats, determination then interrupted): at least 50 minutes
- decrease of motility ([1]; 1.0 mg/kg): ++
- loss of muscle tone ([1]; 1.0 mg/kg): +
- decrease of blood pressure ([8]; awake SHR, 100 μg/kg p.o., four hours after administration): about 20%
- decrease of blood pressure ([8]; awake SHR, 300 μg/kg p.o., four hours after administration): 25%
- loss of avoidance ([3]; 0.05 mg/kg i.m.): ++
- loss of muscle tone ([3]; 0.05 mg/kg i.m.): +
- LD50 [4]: 40 mg/kg
- prevention of the formation of ulcers ([5]; 5 μg/kg i.p.): completely prevented the formation of ulcers
- ED50 [5]: 0.005 mg/kg
- selectivity ratio [6]: 8000

SMILES: Cc1cccc(C)c1C(O)c1c[nH]cn1 (stereo not drawn) [4-[α-(2',6'-Dimethylphenyl)]hydroxymethylimidazole]
- lowering of blood pressure ([7]; 300 μg/kg i.v.): noticeable
- minimal effective dose [7, 9]: 0.1 to 3 mg/kg
- minimal effective dose [7, 10]: 0.1 mg/kg
- decrease of blood pressure ([8]; awake SHR rats, 3 mg/kg p.o., 3 hours after administration): 20%
- LD50 [4]: 125 mg/kg
- prevention of the formation of ulcers ([5]; 0.5 mg/kg): the prevention was partial
- prevention of the formation of ulcers ([5]; 5 mg/kg): completely prevented the formation of ulcers

SMILES: CCc1[nH]cnc1Cc1ccccc1 [5(4)-ethyl-4(5)-benzylimidazole]
- antihypertensive activity (rats (blood pressure)): no antihypertensive activity

SMILES: Cc1[nH]cnc1Cc1ccccc1 [4-benzyl-5-methylimidazole]
- antihypertensive activity (rats (blood pressure)): no antihypertensive activity
- blood pressure change in rats (rats (blood pressure); rats, 1 mg/kg i.v.): the blood pressure rises
- blood pressure lowering effect in rats (rats (blood pressure); rats, at any dosage): no blood pressure lowering effect

Source: patent US4443466A, “4-Benzyl- and 4-benzoyl-substituted imidazole derivatives and use as medicaments” (priority 1980, dated 1984)
